For one assay, the target named is rat NR1/NR2B receptor (Rattus norvegicus (Rat), UniProt P35439+Q00960). Briefly: NR2B binding assay: inhibition of specific [3H]-Ifenprodil binding to the rat NR1/NR2B receptor. To be noted: for inhibition at 1 µM: read-out: % INH @ 1 μM. Here is the method:
Biological Assays Inhibition of Specific Binding to the Rat NR1/NR2B Receptor
Male Wistar rats (180 to 200 g) were killed by suffocation in a CO2 chamber for two minutes. Whole brains without cerebellum were removed and dissected on ice, placed into closed vials and stored at −70° C.
Membrane fractions were prepared and tested using standard techniques. At the time of the assay, 1 g of the brains was placed into 25 ml of 50 mM Tris/10 mM EDTA buffer, pH 7.1, (25 vol. per g of original tissue) and homogenized for 30 sec at 20000 rpm with an Ultraturrax T25 (Jahnke & Kunkel, IKA-Labortechnik, Staufen, Germany).
The supernatant was discarded and the pellet was homogenized on ice for 30 sec at 20000 rpm with an Ultraturrax and again centrifuged at 48000 g for 30 minutes at 4° C. The resultant pellet was resuspended in 25 ml of 50 mM Tris/10 mM EDTA buffer, homogenized for 30 sec with an Ultraturrax, aliquoted, frozen at −70° C. and stored until use.
After thawing on the day of the assay, a 5 ml membrane aliquot was centrifuged at 48000 g for 30 min at 4° C. The pellet was resuspended in 5 ml of 5 mM Tris/1 mM EDTA buffer, pH 7.4, homogenized for 30 sec at 20000 rpm with an Ultraturrax and centrifuged at 48000 g for 30 min at 4° C. This was repeated twice. The final pellet was homogenized in 5 ml of 5 mM Tris/1 mM EDTA buffer at 4° C. with an Ultraturrax and used for the Ifenprodil-binding assay as described in the following.
Nonspecific binding was estimated in the presence of […] CP101.606. The samples were incubated for 60 min. at 4° C.
The incubation was terminated by filtration of the membrane preparations using Filtermat B (Pharmacia, Uppsala Sweden) and a Micro Cell Harvester (Skatron, Lier, Norway). The Filtermat B had been presoaked with 1% polyethylene imine and carefully washed with 50 mM Tris/HCl-buffer pH 7.7 after the filtration to separate free and bound radioactivity.
The optimal amount of membrane preparation in the assay was determined and optimized for each membrane preparation separately before the test.
For pipetting of the incubation mixture the robot Biomek2000 (Fa. Beckman) was used.
For determination of IC50 values the Hill-plot, 2-parameter-model was used.

In the next assay the target is hERG receptor (Homo sapiens (Human), UniProt Q12809). Briefly: HERGBD: inhibition of specific [3H]-Dofetilide binding to the hERG receptor. Here is the method: Inhibition of Specific Binding to the hERG—Receptor (HERGBD)
A HEK cell line with stable transfected human ERG receptor was used for the assay. The cells were grown adherently and maintained in DULBECCOS' MEM medium with 10% FBS, 1% non-essential amino acids, 1% Penicillin/Streptomycin and 400 μg/ml G418 (Calbiochem).
For binding assays and membrane preparations the cell culture medium was removed, cells were washed with PBS. Crude membranes for radioligand binding experiments were prepared by scraping the cells off the dishes in ice cold 20 mM HEPES/0.1 mM KCl/pH 7.2. The cell suspension was homogenized on ice (Ultra turrax, 3×20 sec.) and the homogenate was spun for 10 min (1° C., 1000 g, OPTIMA, SW28, 2800 U/min). The supernatant was than centrifuged for 40 min at 100000 g (1° C., OPTIMA, SW28, 23000 U/min). The membrane pellet was re-suspended in 20 mM HEPES/0.1 mM KCl pH 7.2, frozen and stored at −80° C.
After thawing on the day of the assay, the membrane suspension was diluted further with 20 mM HEPES/0.1 mM KCl/pH 7.2.
The incubation mixture of 200 μl contained 1.5 nmol/l 3H-Dofetilide, optimized amount of membrane preparation, 20 mM HEPES/0.1 mM KCl/(pH 7.2) and inhibitor in 1% DMSO. Nonspecific binding was estimated in the presence of […] Dofetilide. The samples were incubated for 90 min. at RT.
Binding was terminated by filtration of the incubated membrane preparations using Filtermat B (Pharmacia, Uppsala Sweden) and a Micro Cell Harvester (Skatron, Lier, Norway). The Filtermat B had been presoaked with 1% polyethylen imine and carefully washed with 0.05 M Tris/HCl-buffer pH=7.7 after the filtration to separate free and bound radioactivity. The filters were counted in a scintillation counter (Betaplate 1205, Berthold, Wildbad, Germany) in order to determine the specific binding of [^3H]-Dofetilide.
The optimal amount of membrane preparation in the assay was determined and optimized for each membrane preparation separately in front of using the membranes in compound testing.
For pipetting of the incubation mixture we routinely use the robot Biomek2000 (Fa. Beckman).
On the technique in general: The hERG channel carries a current that helps repolarise heart muscle cells.

[1] abbreviates: [3H]-Ifenprodil binding, rat brain membranes.
Where [2] appears, read: 1 μM test compound, [3H]-Ifenprodil binding, rat brain membranes.
The mark [3] stands for this setting: [3H]-Dofetilide binding, membranes of HEK cells with human ERG receptor, read-out: IC50.

From patent publication US10155727B2, “Pyrazoles” (Janssen Pharmaceuticals, Inc., priority 2014, dated 2018) come the findings set out here.

pIC50: −log10 of the molar value. Structures can show the parent of a compound that is named as a salt. Where two headings read alike, the source gives them in different places.

Chain of rat NR1/NR2B receptor (Q00960 27-1482, other chains not shown): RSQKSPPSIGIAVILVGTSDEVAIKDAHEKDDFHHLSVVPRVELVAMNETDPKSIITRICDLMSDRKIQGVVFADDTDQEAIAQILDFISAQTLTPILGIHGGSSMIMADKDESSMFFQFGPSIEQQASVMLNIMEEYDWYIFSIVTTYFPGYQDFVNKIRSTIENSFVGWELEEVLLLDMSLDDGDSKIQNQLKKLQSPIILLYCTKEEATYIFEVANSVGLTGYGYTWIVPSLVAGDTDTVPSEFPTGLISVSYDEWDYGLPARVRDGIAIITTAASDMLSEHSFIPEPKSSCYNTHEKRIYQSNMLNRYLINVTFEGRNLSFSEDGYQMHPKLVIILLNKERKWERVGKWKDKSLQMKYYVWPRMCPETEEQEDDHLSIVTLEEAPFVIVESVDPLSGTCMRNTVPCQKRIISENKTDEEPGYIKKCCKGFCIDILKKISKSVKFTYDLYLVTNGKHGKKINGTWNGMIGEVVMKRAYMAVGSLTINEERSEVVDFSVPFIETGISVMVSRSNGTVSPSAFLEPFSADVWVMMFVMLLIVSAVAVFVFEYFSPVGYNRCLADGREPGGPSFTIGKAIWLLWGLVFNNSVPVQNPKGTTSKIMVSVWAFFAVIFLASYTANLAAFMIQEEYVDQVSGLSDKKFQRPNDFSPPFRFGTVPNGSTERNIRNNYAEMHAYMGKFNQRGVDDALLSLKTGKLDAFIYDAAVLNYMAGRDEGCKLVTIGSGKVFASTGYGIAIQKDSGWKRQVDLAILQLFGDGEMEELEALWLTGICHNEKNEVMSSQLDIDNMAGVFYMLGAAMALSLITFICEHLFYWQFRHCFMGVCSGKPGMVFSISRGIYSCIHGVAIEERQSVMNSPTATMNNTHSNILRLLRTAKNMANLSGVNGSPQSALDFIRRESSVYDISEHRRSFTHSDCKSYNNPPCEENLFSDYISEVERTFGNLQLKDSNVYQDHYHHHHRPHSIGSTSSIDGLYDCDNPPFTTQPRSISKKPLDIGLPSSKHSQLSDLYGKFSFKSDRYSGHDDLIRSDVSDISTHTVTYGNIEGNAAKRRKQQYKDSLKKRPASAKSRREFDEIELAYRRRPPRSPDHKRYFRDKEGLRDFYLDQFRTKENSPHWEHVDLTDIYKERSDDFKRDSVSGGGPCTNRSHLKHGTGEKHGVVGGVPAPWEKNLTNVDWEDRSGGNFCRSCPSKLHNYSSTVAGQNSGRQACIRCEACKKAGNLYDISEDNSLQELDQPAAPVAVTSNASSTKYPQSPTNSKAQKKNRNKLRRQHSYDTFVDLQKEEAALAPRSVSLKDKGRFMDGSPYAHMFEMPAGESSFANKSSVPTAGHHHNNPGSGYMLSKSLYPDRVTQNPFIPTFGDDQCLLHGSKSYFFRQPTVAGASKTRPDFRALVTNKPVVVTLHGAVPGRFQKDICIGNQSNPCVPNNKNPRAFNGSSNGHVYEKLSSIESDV
Chain of hERG receptor (Q12809 whole entry): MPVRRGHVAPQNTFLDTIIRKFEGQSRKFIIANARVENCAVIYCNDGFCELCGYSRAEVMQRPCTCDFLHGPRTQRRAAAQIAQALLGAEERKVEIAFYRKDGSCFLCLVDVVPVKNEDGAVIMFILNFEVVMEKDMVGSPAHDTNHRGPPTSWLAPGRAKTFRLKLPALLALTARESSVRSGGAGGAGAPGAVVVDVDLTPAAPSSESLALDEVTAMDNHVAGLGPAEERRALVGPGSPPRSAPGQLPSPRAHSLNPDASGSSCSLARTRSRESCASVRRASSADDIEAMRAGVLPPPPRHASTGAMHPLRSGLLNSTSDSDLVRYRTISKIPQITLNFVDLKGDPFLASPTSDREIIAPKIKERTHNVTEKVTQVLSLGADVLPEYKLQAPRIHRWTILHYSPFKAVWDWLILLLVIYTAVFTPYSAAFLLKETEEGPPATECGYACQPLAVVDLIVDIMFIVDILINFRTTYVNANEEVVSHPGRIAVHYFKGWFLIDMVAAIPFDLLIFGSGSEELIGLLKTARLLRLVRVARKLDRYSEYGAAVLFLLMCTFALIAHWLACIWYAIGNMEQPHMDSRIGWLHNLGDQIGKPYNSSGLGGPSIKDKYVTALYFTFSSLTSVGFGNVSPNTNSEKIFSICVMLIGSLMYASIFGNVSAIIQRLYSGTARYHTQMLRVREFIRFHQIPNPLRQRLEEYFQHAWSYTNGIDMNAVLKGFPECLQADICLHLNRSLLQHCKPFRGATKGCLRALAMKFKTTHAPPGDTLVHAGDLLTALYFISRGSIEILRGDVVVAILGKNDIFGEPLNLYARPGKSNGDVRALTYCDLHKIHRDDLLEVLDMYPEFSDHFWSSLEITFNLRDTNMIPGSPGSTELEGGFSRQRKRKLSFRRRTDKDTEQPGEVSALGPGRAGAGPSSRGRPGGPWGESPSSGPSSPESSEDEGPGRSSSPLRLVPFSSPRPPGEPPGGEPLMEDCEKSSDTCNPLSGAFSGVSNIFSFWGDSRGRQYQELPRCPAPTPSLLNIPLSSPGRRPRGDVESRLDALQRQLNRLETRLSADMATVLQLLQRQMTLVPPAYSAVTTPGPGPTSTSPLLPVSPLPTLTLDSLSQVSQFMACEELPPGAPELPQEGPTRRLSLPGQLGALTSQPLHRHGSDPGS

The pIC50 is −log10 of the IC50, conventionally taken in molar units. `CCn1cncc1Cn1cc(-c2ccc(Cl)cc2)cn1` [Example 98, 4-(4-chlorophenyl)-1-((1-ethyl-1H-imidazol-5-yl)methyl)-1H-pyrazole]: the results for the pIC50 on rat NR1/NR2B receptor (setting [1]) and on hERG receptor were 5.97 and 5.45, respectively.

Take `Cn1cc(Cn2cc(-c3ccc(Cl)cc3)cn2)cn1` [Example 78, 4-(4-Chlorophenyl)-1-[(1-methylpyrazol-4-yl)methyl]pyrazole]: the pIC50 was 5.08 on rat NR1/NR2B receptor (setting [1]) and below 4.00 on hERG receptor.

In the case of `Fc1ccc(-c2cnn(CCc3cn[nH]c3)c2)cc1C(F)F` [Example 37, 4-[3-(Difluoromethyl)-4-fluoro-phenyl]-1-[2-(1H-pyrazol-4-yl)ethyl]pyrazole], the pIC50 on rat NR1/NR2B receptor (setting [1]) was 5.69; at hERG receptor, 4.42.

Turning to `Clc1ccc(-c2cnn(Cc3cn4ccccc4n3)c2)cc1` [Example 102, 2-((4-(4-chlorophenyl)-1H-pyrazol-1-yl)methyl)imidazo[1,2-a]pyridine], on rat NR1/NR2B receptor (setting [2]), the inhibition at 1 µM is 23.3%. For the same compound, the pIC50 on hERG receptor was 4.99.

On to `CC(F)(F)c1cccc(-c2cnn(Cc3cc[nH]n3)c2)c1` [Example 93, 3-[[4-(3-(1,1-difluoroethyl)-phenyl)pyrazol-1-yl]methyl]-1H-pyrazole Maleate], for which the pIC50 on rat NR1/NR2B receptor (setting [1]) was 7.60; on hERG receptor (setting [3]), 3.89.

For `Fc1ccc(-c2cnn(Cc3cc(Cn4ccc(-c5ccc(F)c(C(F)F)c5)n4)n[nH]3)c2)cc1C(F)F` [Example 103, 3-(3-(difluoromethyl)-4-fluorophenyl)-1-((5-((4-(3-(difluoromethyl)-4-fluorophenyl)-1H-pyrazol-1-yl)methyl)-1H-pyrazol-3-yl)methyl)-1H-pyrazole], on rat NR1/NR2B receptor (setting [2]), the inhibition at 1 µM was determined as 15.5%. This compound had a pIC50 on hERG receptor below 5.00.

As for `CCn1cncc1Cn1cc(-c2ccc(Cl)c(C(F)F)c2)cn1` [Example 95, 4-(4-chloro-3-(difluoromethyl)phenyl)-1-((1-ethyl-1H-imidazol-5-yl)methyl)-1H-pyrazole], the pIC50 on rat NR1/NR2B receptor (setting [1]) was 7.20; on hERG receptor (setting [3]) it was 5.20.

As to `CCn1ccc(Cn2cc(-c3ccc(Cl)c(OC(F)F)c3)cn2)n1` [Example 8, 3-[[4-[4-Chloro-3-(difluoromethoxy)phenyl]pyrazol-1-yl]methyl]-1-ethyl-pyrazole], the pIC50 on rat NR1/NR2B receptor (setting [1]) was 6.55; at hERG receptor, 4.39.

On to `Cn1nccc1-n1cc(-c2ccc(F)c(Cl)c2)cn1` [Example 101, 4-(3-chloro-4-fluorophenyl)-2′-methyl-2′H-1,3′-bipyrazole], for which the pIC50 at rat NR1/NR2B receptor (setting [1]) is 5.25; on hERG receptor, 3.93.

`Cc1cc(Cn2cc(-c3ccc(Cl)c(F)c3)cn2)n(C)n1` [Example 60, 5-[[4-(4-chloro-3-fluoro-phenyl)pyrazol-1-yl]methyl]-1,3-dimethyl-pyrazole]: the pIC50 on rat NR1/NR2B receptor (setting [1]) is 5.66; at hERG receptor (setting [3]), 4.50.

`Cn1ccc(Cn2cc(-c3ccc(Cl)cc3Cl)cn2)n1` [Example 66, 3-[[4-(2,4-dichlorophenyl)pyrazol-1-yl]methyl]-1-methyl-pyrazole Succinate]: the pIC50 is 5.28 on rat NR1/NR2B receptor (setting [1]) and 5.05 at hERG receptor.

For the compound `Fc1cc(-c2cnn(Cc3cc[nH]n3)c2)cc(C(F)F)c1` [Example 47, 4-[3-(difluoromethyl)-5-fluoro-phenyl]-1-(1H-pyrazol-3-ylmethyl) pyrazole Succinate], the figures for the pIC50 on rat NR1/NR2B receptor (setting [1]) and on hERG receptor were 6.69 and below 4.00, respectively.

Regarding `Cc1cc(Cn2cc(-c3ccc(F)c(Cl)c3)cn2)n(C)n1` [Example 62, 5-[[4-(3-chloro-4-fluoro-phenyl)pyrazol-1-yl]methyl]-1,3-dimethyl-pyrazole], the pIC50 was 6.07 at rat NR1/NR2B receptor (setting [1]) and 4.38 on hERG receptor.

For the compound `Cc1cc(-c2cnn(Cc3ccn(C)n3)c2)ccc1F` [Example 55, 3-[[4-(4-fluoro-3-methyl-phenyl)pyrazol-1-yl]methyl]-1-methyl-pyrazole Succinate], the pIC50 at rat NR1/NR2B receptor (setting [1]) is 6.06; at hERG receptor it was 4.68.

Regarding `COc1cc(F)ccc1-c1cnn(Cc2cc(C)nn2C)c1` [Example 68, 5-[[4-(4-fluoro-2-methoxy-phenyl)pyrazol-1-yl]methyl]-1,3-dimethyl-pyrazole Succinate], the inhibition at 10 µM at rat NR1/NR2B receptor (10 μM test compound, [3H]-Ifenprodil binding, rat brain membranes, read-out: % INH @ 10 μM) worked out at 26.3%. On rat NR1/NR2B receptor, the inhibition at 1 µM is 8.7%. The pIC50 at hERG receptor (setting [3]) was 4.03.

`FS(F)(F)(F)(F)c1cccc(-c2cnn(Cc3cc[nH]n3)c2)c1` [Example 72, 1-((1H-pyrazol-3-yl)methyl)-4-(3-(pentafluoro-16-sulfanyl)phenyl)-1H-pyrazole Succinate]: the pIC50 was 7.02 at rat NR1/NR2B receptor (setting [1]) and 4.35 on hERG receptor.

On to `Cc1cc(-c2cnn(Cc3cc[nH]n3)c2)ccc1F` [Example 56, 4-(4-fluoro-3-methyl-phenyl)-1-(1H-pyrazol-3-ylmethyl)pyrazole], for which the pIC50 was 7.10 on rat NR1/NR2B receptor (setting [1]) and 4.03 on hERG receptor.

With `Cc1n[nH]c(C)c1CCn1cc(-c2ccc(Cl)cc2)cn1` [Example 73, 4-[2-[4-(4-chlorophenyl)pyrazol-1-yl]ethyl]-3,5-dimethyl-1H-pyrazole], the pIC50 was 5.94 on rat NR1/NR2B receptor (setting [1]) and 4.01 on hERG receptor.

Regarding `Cn1cc(Cn2cc(-c3ccc(F)c(C(F)F)c3)cn2)cn1` [Example 33, 4-[3-(Difluoromethyl)-4-fluoro-phenyl]-1-[(1-methylpyrazol-4-yl)methyl]pyrazole], the pIC50 at rat NR1/NR2B receptor (setting [1]) is 6.43; on hERG receptor it was below 4.00.

As for `Cc1n[nH]c(C)c1Cn1cc(-c2ccc(F)c(C(C)(F)F)c2)cn1` [Example 90], the pIC50 on rat NR1/NR2B receptor (setting [1]) was 6.37; at hERG receptor, 4.08.

Turning to `Cc1cc(Cn2cc(-c3ccc(Cl)c(C(F)F)c3)cn2)n(C)n1` [Example 25, 5-[[4-[4-Chloro-3-(difluoromethyl)phenyl]pyrazol-1-yl]methyl]-1,3-dimethyl-pyrazole], the pIC50 on rat NR1/NR2B receptor (setting [1]) is 6.01; at hERG receptor (setting [3]), 4.30.

Consider `Cn1ccc(Cn2cc(-c3ccc(Cl)c(C(F)(F)F)c3)cn2)n1` [Example 30, 3-[[4-[4-chloro-3-(trifluoromethyl)phenyl]pyrazol-1-yl]methyl]-1-methyl-pyrazole], for which the results for the pIC50 on rat NR1/NR2B receptor (setting [1]) and on hERG receptor were 6.00 and 5.46, respectively.

Regarding `Cc1cc(Cn2cc(-c3cccc(C(F)(F)F)c3)cn2)n(C)n1` [Example 48, 1,3-dimethyl-5-[[4-[3-(trifluoromethyl)phenyl]pyrazol-1-yl]methyl]pyrazole], the pIC50 on rat NR1/NR2B receptor (setting [1]) is 5.71; at hERG receptor, 4.43.

For `Cn1nccc1Cn1cc(-c2ccc(Cl)cc2)cn1` [Example 76, 4-(4-Chlorophenyl)-1-[(2-methylpyrazol-3-yl)methyl]pyrazole], the pIC50 on rat NR1/NR2B receptor (setting [1]) was 5.13; at hERG receptor, 3.92.

Consider `FC(F)Oc1cc(-c2cnn(Cc3ccn(C4CCCC4)n3)c2)ccc1Cl` [Example 12, 3-[[4-[4-Chloro-3-(difluoromethoxy)phenyl]pyrazol-1-yl]methyl]-1-cyclopentyl-pyrazole], for which the pIC50 at rat NR1/NR2B receptor (setting [1]) is 6.55; at hERG receptor, 5.09.
